Measured values as given in ChEMBL document CHEMBL4613212, “Insights of synthetic analogues of anti-leprosy agents” (Bioorg Med Chem, 2019).
Converted amounts (≈) assume the structure as drawn.

What was measured:
Monocyte [1] = experiment: Antiinflammatory activity in human monocytes assessed as inhibition of LPS-induced TNFaplha production at 5 uM preincubated for 15 mins followed by LPS addition and measured after 4 hrs by ELISA relative to control; format: functional
Monocyte [2] = experiment: Antiinflammatory activity in human monocytes assessed as inhibition of LPS-induced TNFaplha production at 50 uM preincubated for 15 mins followed by LPS addition and measured after 4 hrs by ELISA relative to control; format: functional
[3] = Cytotoxicity against LPS-induced human monocytes assessed as cell viability at 50 uM by tryphan blue staining based assay relative to control; set-up: species or system Monocyte; details: read-out: Activity
Monocyte [4] = experiment: Antiinflammatory activity in human monocytes assessed as inhibition of LPS-induced TNFaplha production at 25 uM preincubated for 15 mins followed by LPS addition and measured after 4 hrs by ELISA relative to control; format: functional
Escherichia coli = experiment: Antimicrobial activity against Escherichia coli assessed as zone of inhibition incubated for 20 hrs by agar well diffusion assay; format: functional
Staphylococcus aureus = experiment: Antimicrobial activity against Staphylococcus aureus assessed as zone of inhibition incubated for 20 hrs by agar well diffusion assay; format: functional
Mycobacterium leprae [5] = experiment: Anti-leprotic activity against rifampicin-susceptible Mycobacterium leprae subcultures at 4 weeks assessed as [3H]thymidine uptake per 5 times 10^7 cells at 0.2 mg/L incubated for 24 hrs (reference value: 1.41 +/- 0.20 pmol); format: functional
Mycobacterium leprae [6] = experiment: Anti-leprotic activity against rifampicin-susceptible Mycobacterium leprae primary cultures at 4 weeks assessed as [3H]thymidine uptake per 5 times 10^7 cells at 0.4 mg/L incubated for 24 hrs (reference value: 1.05 +/- 0.16 pmol); format: functional
Mycobacterium leprae [7] = experiment: Anti-leprotic activity against rifampicin-susceptible Mycobacterium leprae primary cultures at 4 weeks assessed as [3H]thymidine uptake per 5 times 10^7 cells at 0.3 mg/L incubated for 24 hrs (reference value: 1.05 +/- 0.16 pmol); format: functional
Mycobacterium leprae [8] = experiment: Anti-leprotic activity against rifampicin-susceptible Mycobacterium leprae primary cultures at 4 weeks assessed as [3H]thymidine uptake per 5 times 10^7 cells at 0.2 mg/L incubated for 24 hrs (reference value: 1.05 +/- 0.16 pmol); format: functional
Mycobacterium leprae [9] = experiment: Anti-leprotic activity against rifampicin-susceptible Mycobacterium leprae subcultures at 4 weeks assessed as ATP level per 10^7 cells at 0.1 mg/L measured by bioluminescence assay (reference value: 425 +/- 64 pg); format: functional
Mycobacterium leprae [10] = experiment: Anti-leprotic activity against rifampicin-susceptible Mycobacterium leprae primary cultures at 4 weeks assessed as ATP level per 10^7 cells at 0.2 mg/L measured by bioluminescence assay (reference value: 332 +/- 46 pg); format: functional
Mycobacterium leprae [11] = experiment: Anti-leprotic activity against rifampicin-susceptible Mycobacterium leprae subcultures at 4 weeks assessed as ATP level per 10^7 cells at 0.2 mg/L measured by bioluminescence assay (reference value: 425 +/- 64 pg); format: functional
Mycobacterium leprae [12] = experiment: Anti-leprotic activity against rifampicin-susceptible Mycobacterium leprae subcultures at 4 weeks assessed as [3H]thymidine uptake per 5 times 10^7 cells at 0.4 mg/L incubated for 24 hrs (reference value: 1.41 +/- 0.20 pmol); format: functional
Mycobacterium leprae [13] = experiment: Anti-leprotic activity against rifampicin-susceptible Mycobacterium leprae primary cultures at 4 weeks assessed as ATP level per 10^7 cells at 0.4 mg/L measured by bioluminescence assay (reference value: 332 +/- 46 pg); format: functional
Mycobacterium leprae [14] = experiment: Anti-leprotic activity against rifampicin-susceptible Mycobacterium leprae subcultures at 4 weeks assessed as ATP level per 10^7 cells at 0.4 mg/L measured by bioluminescence assay (reference value: 425 +/- 64 pg); format: functional
Mycobacterium leprae [15] = experiment: Anti-leprotic activity against rifampicin-susceptible Mycobacterium leprae subcultures at 4 weeks assessed as ATP level per 10^7 cells at 0.3 mg/L measured by bioluminescence assay (reference value: 425 +/- 64 pg); format: functional
Mycobacterium leprae [16] = experiment: Anti-leprotic activity against rifampicin-susceptible Mycobacterium leprae primary cultures at 4 weeks assessed as ATP level per 10^7 cells at 0.1 mg/L measured by bioluminescence assay (reference value: 332 +/- 46 pg); format: functional
Mycobacterium leprae [17] = experiment: Anti-leprotic activity against rifampicin-susceptible Mycobacterium leprae primary cultures at 4 weeks assessed as ATP level per 10^7 cells at 0.3 mg/L measured by bioluminescence assay (reference value: 332 +/- 46 pg); format: functional
Mycobacterium leprae [18] = experiment: Anti-leprotic activity against rifampicin-susceptible Mycobacterium leprae primary cultures at 4 weeks assessed as [3H]thymidine uptake per 5 times 10^7 cells at 0.1 mg/L incubated for 24 hrs (reference value: 1.05 +/- 0.16 pmol); format: functional
Mycobacterium leprae [19] = experiment: Anti-leprotic activity against rifampicin-susceptible Mycobacterium leprae subcultures at 4 weeks assessed as [3H]thymidine uptake per 5 times 10^7 cells at 0.3 mg/L incubated for 24 hrs (reference value: 1.41 +/- 0.20 pmol); format: functional
Mycobacterium leprae [20] = experiment: Anti-leprotic activity against rifampicin-susceptible Mycobacterium leprae subcultures at 4 weeks assessed as [3H]thymidine uptake per 5 times 10^7 cells at 0.1 mg/L incubated for 24 hrs (reference value: 1.41 +/- 0.20 pmol); format: functional
Mycobacterium leprae [21] = experiment: Anti-leprotic activity against Mycobacterium leprae infected in BALB/c weanling mouse assessed as bacteria killing at 20 mg/kg, ip administrated for 60 days and measured after 1 year by most probable number technique analysis relative to control; format: functional
Mycobacterium leprae [22] = experiment: Anti-leprotic activity against Mycobacterium leprae infected in BALB/c weanling mouse assessed as bacteria killing at 20 mg/kg, ip administrated for 60 days and measured after 1 year by Spearman-Karber technique analysis relative to control; format: functional
[23] = system: Mycolicibacterium smegmatis; experiment: Antimycobacterial activity against DDS sensitive Mycobacterium smegmatis ATCC 607 […]; format: functional
Rattus norvegicus = experiment: Effect of metallo-protein haemoglobin in rat assessed as peak methemoglobin level at 400 mg/kg, sc administered as single dose; format: ADME, organism-based; details: in vivo
[24] = Drug excretion in rat urine at 400 mg/kg, sc administered as single dose measured after 30 days; format: ADME, organism-based; details: read-out: Drug excretion
[25] = Drug concentration in rat blood at 400 mg/kg, sc administered as single dose; format: ADME, organism-based; details: in vivo
[26] = Half life in rat at 400 mg/kg, sc administered as single dose; format: ADME, organism-based; details: in vivo
Plasmodium berghei = experiment: Antimalarial activity against Plasmodium berghei infected in albino mouse assessed survival against infection at 400 mg/kg, sc administered as single dose; format: functional
[27] = system: Mycolicibacterium smegmatis; experiment: Antimycobacterial activity against DDS resistant Mycobacterium smegmatis ATCC 607 […]; format: functional
Mycobacterium leprae [28] = experiment: Anti-leprotic activity against Mycobacterium leprae infected in BALB/c mouse assessed as time delay in bacterial multiplication in footpad at 0.01 g/100g of diet administered via feed starting 60 or 75 day post infection up to 90 days by Shepard's kinetic method; format: functional
Mycobacterium leprae [29] = experiment: (§1) Inhibition of PGL1 synthesis in Mycobacterium leprae infected Swiss Webster mouse macrophages assessed as decrease in [U-14C]PA incorporation at 20 uM preincubated for 4 days post infection followed by [U-14C]PA addition and measured after 7 days by liquid scintillation counter analysis relative to control; format: functional
Mycobacterium leprae [30] = experiment: as §1, with “2” for “20”; format: functional
Mycobacterium leprae [31] = experiment: as §1, with “0.2” for “20”; format: functional
[32] = system: Mycolicibacterium smegmatis; experiment: Antimicrobial activity against Mycobacterium smegmatis incubated for 30 to 32 hrs under shaking condition relative to control; format: functional
[33] = system: Mycolicibacterium smegmatis; experiment: Antimicrobial activity against Mycobacterium smegmatis incubated for 30 to 32 hrs under shaking condition; format: functional
Mycobacterium leprae [34] = experiment: Anti-leprotic activity against Mycobacterium leprae infected in CBA mouse assessed as number of Mycobacterium leprae in paw pads at 30 mg/kg administrated 5 times a week and measured 7.5 months post infection (reference value: 3.91 +/- 0.33 10^5); format: functional
Mycobacterium leprae [35] = experiment: Anti-leprotic activity against Mycobacterium leprae infected in CBA mouse assessed as number of Mycobacterium leprae in paw pads at 10 mg/kg administrated 5 times a week and measured 7.5 months post infection (reference value: 3.91 +/- 0.33 10^5); format: functional

`O=C1c2ccccc2C(=O)N1c1cnc(O)nc1O` showed an inhibition at 5 µM (Monocyte [1]) of under 10%, an inhibition at 50 µM (Monocyte [2]) of under 10% and a viability at 50 µM [3] of 91%. For the same compound, the inhibition at 25 µM (Monocyte [4]) was under 10%.

In the case of `C[C@@H](O)[C@H]1C(=O)N2C(C(=O)O)=C(SCCNC=O)C[C@H]12`, the “diameter of the inhibition zone (DIZ)” value (Escherichia coli) is reported as 30 mm and the “diameter of the inhibition zone (DIZ)” value (Staphylococcus aureus) is reported as 29 mm.

Compound `CCCN1CCN(c2cc(O)c3nc4c5c6c7c(C)c(O)c5c(=O)c(c-4oc3c2)NC(=O)/C(C)=C\C=C\[C@H](C)[C@H](O)[C@@H](C)[C@@H](O)[C@@H](C)[C@H](OC(C)=O)[C@H](C)[C@@H](OC)/C=C/O[C@@](C)(O7)C6=O)CC1` has an Activity (Mycobacterium leprae [5]) of 1.3 pmol, an Activity (Mycobacterium leprae [6]) of 0 pmol and an Activity (Mycobacterium leprae [7]) of 0 pmol. For the same compound, the Activity (Mycobacterium leprae [8]) was 0.79 pmol, the Activity (Mycobacterium leprae [9]) was 369 pg and the Activity (Mycobacterium leprae [10]) was 245 pg. It also gave an Activity (Mycobacterium leprae [11]) of 0 pg, an Activity (Mycobacterium leprae [12]) of 0 pmol and an Activity (Mycobacterium leprae [13]) of 0 pg. For the same compound, the Activity (Mycobacterium leprae [14]) was 0 pg, the Activity (Mycobacterium leprae [15]) was 0 pg and the Activity (Mycobacterium leprae [16]) was 298 pg. The Activity (Mycobacterium leprae [17]) was 0 pg, the Activity (Mycobacterium leprae [18]) was 0.97 pmol and the Activity (Mycobacterium leprae [19]) was 0.84 pmol. It also gave an Activity (Mycobacterium leprae [20]) of 0 pmol.

With `C[C@@H](O)[C@H]1C(=N)N2C(C(=O)O)=C(SCCNC=N)C[C@H]12` the “diameter of the inhibition zone (DIZ)” value (Escherichia coli) was 27 mm and the “diameter of the inhibition zone (DIZ)” value (Staphylococcus aureus) was 25 mm.

With `NC[C@H]1O[C@H](O[C@H]2[C@H](O)[C@@H](O[C@H]3O[C@H](CO)[C@@H](O)[C@H](N)[C@H]3O)[C@H](N)C[C@@H]2N)[C@H](N)C[C@@H]1O` [TOBRAMYCIN] the Activity (Mycobacterium leprae [21]) was 28.7% and the Activity (Mycobacterium leprae [22]) was 37%.

In the case of `CC(=O)Nc1ccc(S(=O)(=O)c2ccc(N)cc2)cc1` [MONO-N-ACETYL DAPSONE], the MIC [23] is reported as 13.8 µg/mL (≈ 47.5 µM), the Activity (Rattus norvegicus) is reported as 1.2 g/dL and the dose excreted at 720 h [24] is reported as 50%. For the same compound, the Drug uptake [25] was 1.3 µg/mL, the half-life [26] was 32 days and the Survival (Plasmodium berghei) was 3.5 weeks. It also gave an MIC [27] of over 300 µg/mL and a Time (Mycobacterium leprae [28]) of 60 days.

`CCc1cc(C(N)=S)ccn1` [ETHIONAMIDE] gave an inhibition at 20 µM (Mycobacterium leprae [29]) of 97% and an inhibition at 2 µM (Mycobacterium leprae [30]) of 77%.

Compound `Clc1ccc(Nc2cc3nc4ccccc4n(-c4ccc(Cl)cc4)c-3c/c2=N/CCCN2CCCC2)cc1` has an inhibition at 2 µM (Mycobacterium leprae [30]) of 98% and an inhibition at 0.2 µM (Mycobacterium leprae [31]) of 26%.

`COc1ccc(S(=O)(=O)c2ccc(N)cc2)cc1` showed an MIC [23] of 256 µg/mL (≈ 972 µM), an MIC [27] of over 500 µg/mL and a Time (Mycobacterium leprae [28]) of under 10 days.

`CCn1cc(C(=O)N/N=C\c2c(Cl)cccc2Cl)c(=O)c2cc(F)c(N3CCN(C)CC3)cc21` gave an Activity [32] of over 30% and an MIC [33] of 27 µM (≈ 13.6 µg/mL).

In the case of `C[C@@H](O)[C@H]1C(=O)N2C(C(=O)O)=C(SCCNC=N)C[C@H]12` [IMIPENEM ANHYDROUS], the “diameter of the inhibition zone (DIZ)” value (Escherichia coli) is reported as 35 mm and the “diameter of the inhibition zone (DIZ)” value (Staphylococcus aureus) is reported as 31 mm.

Compound `CN(C)C(=S)Sc1c(C#N)cc([N+](=O)[O-])cc1[N+](=O)[O-]` has an Activity (Mycobacterium leprae [34]) of 0.77 ×10⁵ No_unit and an Activity (Mycobacterium leprae [35]) of 0.83 ×10⁵ No_unit.
